Blank lines part the entries; values can stand above or below the molecule they belong to.
What was measured:
[1] = Induction of apoptosis in human MOLM16 cells assessed as late apoptotic cells at 2 uM incubated for 48 hrs by Annexin V and propidium iodide Staining based assay (reference value: 6.77 %); type: functional, MOLM-16
[2] = Induction of cell cycle arrest in human MOLM16 cells assessed as accumulation at subG1 phase at 2 uM incubated for 24 hrs by propidium iodide /RNase staining based flow cytometry(Rvb =4.02 %); type: functional, MOLM-16
[3] = Induction of cell cycle arrest in human MOLM16 cells assessed as accumulation at subG1 phase at 5 uM incubated for 24 hrs by propidium iodide /RNase staining based flow cytometry(Rvb =4.02 %); type: functional, MOLM-16
[4] = Induction of cell cycle arrest in human MOLM16 cells assessed as accumulation at G1 phase at 2 uM incubated for 24 hrs by propidium iodide /RNase staining based flow cytometry(Rvb =46.8 %); type: functional, MOLM-16
[5] = Induction of cell cycle arrest in human MOLM16 cells assessed as accumulation at G2 phase at 2 uM incubated for 24 hrs by propidium iodide /RNase staining based flow cytometry(Rvb =14.7 %); type: functional, MOLM-16
[6] = Induction of cell cycle arrest in human MOLM16 cells assessed as accumulation at G1 phase at 5 uM incubated for 24 hrs by propidium iodide /RNase staining based flow cytometry(Rvb =46.8 %); type: functional, MOLM-16
[7] = Induction of cell cycle arrest in human MOLM16 cells assessed as accumulation at G1 phase at 1 uM incubated for 24 hrs by propidium iodide /RNase staining based flow cytometry(Rvb =46.8 %); type: functional, MOLM-16
[8] = Induction of apoptosis in human MOLM16 cells assessed as necrotic cells at 1 uM incubated for 48 hrs by Annexin V and propidium iodide Staining based assay (reference value: 0.44 %); type: functional, MOLM-16
[9] = Induction of apoptosis in human MOLM16 cells assessed as early apoptotic cells at 5 uM incubated for 48 hrs by Annexin V and propidium iodide Staining based assay (reference value: 16.4 %); type: functional, MOLM-16
[10] = Induction of apoptosis in human MOLM16 cells assessed as late apoptotic cells at 1 uM incubated for 48 hrs by Annexin V and propidium iodide Staining based assay (reference value: 6.77 %); type: functional, MOLM-16
[11] = Induction of cell cycle arrest in human MOLM16 cells assessed as accumulation at G2 phase at 1 uM incubated for 24 hrs by propidium iodide /RNase staining based flow cytometry(Rvb =14.7 %); type: functional, MOLM-16
[12] = Induction of apoptosis in human MOLM16 cells assessed as viable cells at 2 uM incubated for 48 hrs by Annexin V and propidium iodide Staining based assay (reference value: 76.3 %); type: functional, MOLM-16; conditions: read-out: Activity
[13] = Induction of apoptosis in human MOLM16 cells assessed as early apoptotic cells at 2 uM incubated for 48 hrs by Annexin V and propidium iodide Staining based assay (reference value: 16.4 %); type: functional, MOLM-16
[14] = Induction of apoptosis in human MOLM16 cells assessed as viable cells at 1 uM incubated for 48 hrs by Annexin V and propidium iodide Staining based assay (reference value: 76.3 %); type: functional, MOLM-16; conditions: read-out: Activity
[15] = Induction of cell cycle arrest in human MOLM16 cells assessed as accumulation at S phase at 2 uM incubated for 24 hrs by propidium iodide /RNase staining based flow cytometry(Rvb =31.8 %); type: functional, MOLM-16
[16] = Induction of cell cycle arrest in human MOLM16 cells assessed as accumulation at subG1 phase at 1 uM incubated for 24 hrs by propidium iodide /RNase staining based flow cytometry(Rvb =4.02 %); type: functional, MOLM-16
[17] = Induction of cell cycle arrest in human MOLM16 cells assessed as accumulation at S phase at 1 uM incubated for 24 hrs by propidium iodide /RNase staining based flow cytometry(Rvb =31.8 %); type: functional, MOLM-16
[18] = Induction of apoptosis in human MOLM16 cells assessed as late apoptotic cells at 5 uM incubated for 48 hrs by Annexin V and propidium iodide Staining based assay (reference value: 6.77 %); type: functional, MOLM-16
[19] = Induction of cell cycle arrest in human MOLM16 cells assessed as accumulation at G2 phase at 5 uM incubated for 24 hrs by propidium iodide /RNase staining based flow cytometry(Rvb =14.7 %); type: functional, MOLM-16
[20] = Induction of apoptosis in human MOLM16 cells assessed as necrotic cells at 5 uM incubated for 48 hrs by Annexin V and propidium iodide Staining based assay (reference value: 0.44 %); type: functional, MOLM-16
[21] = Induction of apoptosis in human MOLM16 cells assessed as necrotic cells at 2 uM incubated for 48 hrs by Annexin V and propidium iodide Staining based assay (reference value: 0.44 %); type: functional, MOLM-16
[22] = Induction of cell cycle arrest in human MOLM16 cells assessed as accumulation at S phase at 5 uM incubated for 24 hrs by propidium iodide /RNase staining based flow cytometry(Rvb =31.8 %); type: functional, MOLM-16
[23] = Induction of apoptosis in human MOLM16 cells assessed as viable cells at 5 uM incubated for 48 hrs by Annexin V and propidium iodide Staining based assay (reference value: 76.3 %); type: functional, MOLM-16; conditions: read-out: Activity
[24] = Induction of apoptosis in human MOLM16 cells assessed as early apoptotic cells at 1 uM incubated for 48 hrs by Annexin V and propidium iodide Staining based assay (reference value: 16.4 %); type: functional, MOLM-16
[25] = biological target: T1, Phosphatidylinositol 4,5-bisphosphate 3-kinase catalytic subunit delta isoform (Homo sapiens, UniProt O00329); test: Inhibition of PI3Kdelta (unknown origin) using PIP2 as substrate in presence of ATP measured after 60 mins by ADP-Glo assay
T1 sequence (O00329 whole entry): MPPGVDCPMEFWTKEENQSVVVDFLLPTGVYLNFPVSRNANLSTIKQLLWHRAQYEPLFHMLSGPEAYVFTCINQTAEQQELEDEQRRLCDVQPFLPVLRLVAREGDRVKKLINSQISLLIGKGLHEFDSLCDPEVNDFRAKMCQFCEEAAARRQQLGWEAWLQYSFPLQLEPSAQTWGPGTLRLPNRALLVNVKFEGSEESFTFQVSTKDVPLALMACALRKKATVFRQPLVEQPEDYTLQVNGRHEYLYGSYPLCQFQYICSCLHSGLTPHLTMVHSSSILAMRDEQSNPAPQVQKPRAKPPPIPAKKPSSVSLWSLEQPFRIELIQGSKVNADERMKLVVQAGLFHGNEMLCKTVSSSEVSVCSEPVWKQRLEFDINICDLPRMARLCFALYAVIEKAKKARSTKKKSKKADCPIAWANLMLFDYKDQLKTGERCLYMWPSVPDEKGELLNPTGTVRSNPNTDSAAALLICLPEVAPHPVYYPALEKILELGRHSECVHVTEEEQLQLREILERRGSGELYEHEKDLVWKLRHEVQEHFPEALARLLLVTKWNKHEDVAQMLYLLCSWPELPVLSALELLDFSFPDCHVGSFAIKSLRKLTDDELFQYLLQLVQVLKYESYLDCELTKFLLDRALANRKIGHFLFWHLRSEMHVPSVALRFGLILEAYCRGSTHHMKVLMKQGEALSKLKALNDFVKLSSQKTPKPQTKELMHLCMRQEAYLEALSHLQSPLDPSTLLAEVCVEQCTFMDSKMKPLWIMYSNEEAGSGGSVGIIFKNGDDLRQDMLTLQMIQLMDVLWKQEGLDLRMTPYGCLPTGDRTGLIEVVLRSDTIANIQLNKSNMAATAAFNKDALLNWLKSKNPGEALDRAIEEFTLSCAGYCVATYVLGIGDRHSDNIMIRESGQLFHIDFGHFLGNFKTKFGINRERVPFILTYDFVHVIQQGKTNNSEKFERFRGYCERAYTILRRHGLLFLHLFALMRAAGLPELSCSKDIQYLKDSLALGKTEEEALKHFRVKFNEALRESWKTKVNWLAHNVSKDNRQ

[26] = biological target: Phosphatidylinositol 4,5-bisphosphate 3-kinase catalytic subunit beta isoform (Homo sapiens, UniProt P42338); test: Inhibition of PI3Kbeta (unknown origin) using PIP2 as substrate in presence of ATP measured after 60 mins by ADP-Glo assay
[27] = biological target: Phosphatidylinositol 4,5-bisphosphate 3-kinase catalytic subunit gamma isoform (Homo sapiens, UniProt P48736); test: Inhibition of PI3Kgamma (unknown origin) using PIP2 as substrate in presence of ATP measured after 60 mins by ADP-Glo assay
[28] = biological target: Phosphatidylinositol 4,5-bisphosphate 3-kinase catalytic subunit alpha isoform (Homo sapiens, UniProt P42336); test: Inhibition of PI3Kalpha (unknown origin) using PIP2 as substrate in presence of ATP measured after 60 mins by ADP-Glo assay
Sequence of Phosphatidylinositol 4,5-bisphosphate 3-kinase catalytic subunit alpha isoform (P42336 whole entry, canonical isoform): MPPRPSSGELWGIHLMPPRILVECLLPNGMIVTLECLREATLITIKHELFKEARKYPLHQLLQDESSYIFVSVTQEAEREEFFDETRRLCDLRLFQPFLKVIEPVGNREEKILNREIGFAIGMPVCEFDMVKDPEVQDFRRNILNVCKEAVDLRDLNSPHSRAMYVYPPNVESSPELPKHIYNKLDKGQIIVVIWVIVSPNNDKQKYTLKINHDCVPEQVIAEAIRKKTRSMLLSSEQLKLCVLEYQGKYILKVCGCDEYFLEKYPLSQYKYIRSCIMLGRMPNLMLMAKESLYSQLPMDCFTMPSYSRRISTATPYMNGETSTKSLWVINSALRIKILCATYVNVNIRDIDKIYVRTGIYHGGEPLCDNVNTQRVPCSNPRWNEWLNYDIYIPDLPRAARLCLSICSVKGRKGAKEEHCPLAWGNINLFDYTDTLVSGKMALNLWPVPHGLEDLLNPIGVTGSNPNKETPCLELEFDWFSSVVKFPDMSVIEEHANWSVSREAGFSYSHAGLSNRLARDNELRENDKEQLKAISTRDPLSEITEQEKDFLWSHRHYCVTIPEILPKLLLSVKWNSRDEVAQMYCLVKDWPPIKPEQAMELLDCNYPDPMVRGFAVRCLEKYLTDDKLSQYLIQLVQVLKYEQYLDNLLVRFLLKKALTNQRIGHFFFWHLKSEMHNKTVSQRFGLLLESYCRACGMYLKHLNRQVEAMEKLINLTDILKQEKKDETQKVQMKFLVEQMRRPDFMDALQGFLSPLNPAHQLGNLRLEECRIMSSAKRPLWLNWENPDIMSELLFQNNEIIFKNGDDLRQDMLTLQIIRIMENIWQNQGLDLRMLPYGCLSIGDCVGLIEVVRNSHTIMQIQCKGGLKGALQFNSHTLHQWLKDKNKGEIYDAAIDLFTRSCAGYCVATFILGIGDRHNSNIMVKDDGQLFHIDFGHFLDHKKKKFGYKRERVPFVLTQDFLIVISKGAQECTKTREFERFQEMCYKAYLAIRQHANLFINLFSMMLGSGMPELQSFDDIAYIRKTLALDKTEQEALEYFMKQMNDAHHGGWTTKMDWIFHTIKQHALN

Sequence of Phosphatidylinositol 4,5-bisphosphate 3-kinase catalytic subunit gamma isoform (P48736 whole entry, canonical isoform): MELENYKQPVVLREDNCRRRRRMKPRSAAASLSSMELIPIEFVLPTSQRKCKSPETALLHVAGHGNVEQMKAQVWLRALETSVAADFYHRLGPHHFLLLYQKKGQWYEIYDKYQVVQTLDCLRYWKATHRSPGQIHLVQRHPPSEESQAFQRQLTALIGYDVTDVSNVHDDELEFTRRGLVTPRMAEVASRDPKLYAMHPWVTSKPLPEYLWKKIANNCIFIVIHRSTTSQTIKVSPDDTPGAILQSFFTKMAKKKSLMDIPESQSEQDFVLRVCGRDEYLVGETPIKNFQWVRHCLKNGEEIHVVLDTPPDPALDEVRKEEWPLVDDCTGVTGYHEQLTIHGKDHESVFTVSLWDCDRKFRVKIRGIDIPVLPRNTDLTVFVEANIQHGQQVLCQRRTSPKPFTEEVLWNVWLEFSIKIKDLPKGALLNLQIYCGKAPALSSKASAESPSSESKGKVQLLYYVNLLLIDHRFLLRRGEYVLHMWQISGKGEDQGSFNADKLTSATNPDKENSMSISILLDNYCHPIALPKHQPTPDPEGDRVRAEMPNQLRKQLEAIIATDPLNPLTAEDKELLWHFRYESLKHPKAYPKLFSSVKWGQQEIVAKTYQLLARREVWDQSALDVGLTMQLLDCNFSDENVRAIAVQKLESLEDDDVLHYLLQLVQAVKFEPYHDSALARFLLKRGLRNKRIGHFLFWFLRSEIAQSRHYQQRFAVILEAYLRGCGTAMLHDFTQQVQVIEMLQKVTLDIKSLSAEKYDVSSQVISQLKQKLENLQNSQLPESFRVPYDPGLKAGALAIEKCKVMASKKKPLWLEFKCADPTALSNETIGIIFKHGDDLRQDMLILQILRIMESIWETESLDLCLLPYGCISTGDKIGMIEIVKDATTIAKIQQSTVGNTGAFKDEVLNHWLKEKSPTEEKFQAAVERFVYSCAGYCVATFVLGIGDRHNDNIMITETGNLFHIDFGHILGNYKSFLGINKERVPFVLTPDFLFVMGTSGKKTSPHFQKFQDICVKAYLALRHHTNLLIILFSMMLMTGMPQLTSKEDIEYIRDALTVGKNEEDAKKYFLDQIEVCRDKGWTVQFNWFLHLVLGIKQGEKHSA
Sequence of Phosphatidylinositol 4,5-bisphosphate 3-kinase catalytic subunit beta isoform (P42338 whole entry, canonical isoform): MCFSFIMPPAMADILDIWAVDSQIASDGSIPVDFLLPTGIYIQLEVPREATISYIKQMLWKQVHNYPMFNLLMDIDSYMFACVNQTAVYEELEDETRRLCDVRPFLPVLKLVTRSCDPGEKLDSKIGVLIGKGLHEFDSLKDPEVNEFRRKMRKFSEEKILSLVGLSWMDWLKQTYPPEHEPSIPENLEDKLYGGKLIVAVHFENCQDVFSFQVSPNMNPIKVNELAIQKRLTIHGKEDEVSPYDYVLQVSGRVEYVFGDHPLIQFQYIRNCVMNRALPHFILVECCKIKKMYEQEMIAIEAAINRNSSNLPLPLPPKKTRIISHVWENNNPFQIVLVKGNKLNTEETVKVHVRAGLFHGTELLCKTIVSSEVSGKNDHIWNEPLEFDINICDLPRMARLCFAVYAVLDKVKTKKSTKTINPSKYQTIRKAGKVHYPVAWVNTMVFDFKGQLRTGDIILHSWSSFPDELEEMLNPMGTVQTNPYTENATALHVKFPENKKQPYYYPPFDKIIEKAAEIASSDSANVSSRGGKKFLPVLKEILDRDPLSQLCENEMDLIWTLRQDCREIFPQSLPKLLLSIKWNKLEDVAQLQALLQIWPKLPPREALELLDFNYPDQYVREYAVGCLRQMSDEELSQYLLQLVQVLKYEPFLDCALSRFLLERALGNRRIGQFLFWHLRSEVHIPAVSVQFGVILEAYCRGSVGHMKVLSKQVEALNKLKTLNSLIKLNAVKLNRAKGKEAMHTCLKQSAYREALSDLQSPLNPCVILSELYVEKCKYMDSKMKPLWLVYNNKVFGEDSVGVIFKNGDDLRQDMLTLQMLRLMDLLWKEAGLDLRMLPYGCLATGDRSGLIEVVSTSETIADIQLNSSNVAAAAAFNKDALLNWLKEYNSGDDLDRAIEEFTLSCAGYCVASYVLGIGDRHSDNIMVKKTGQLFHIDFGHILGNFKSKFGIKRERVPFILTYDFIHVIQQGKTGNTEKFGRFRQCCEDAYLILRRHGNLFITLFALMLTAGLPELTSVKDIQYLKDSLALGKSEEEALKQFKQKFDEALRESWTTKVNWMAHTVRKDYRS

SMILES: CC[C@H](Nc1ncnc2[nH]cnc12)c1nc2cccc(F)c2c(=O)n1-c1ccccc1 [IDELALISIB]
Activity [1]: 10.1% | Activity [2]: 5.71% | Activity [3]: 2.6% | Activity [4]: 48.4% | Activity [5]: 12.4% | Activity [6]: 49.6% | Activity [7]: 47.9% | Activity [8]: 1.14% | Activity [9]: 14.8% | Activity [10]: 7.95% | Activity [11]: 13.9% | viability at 2 µM [12]: 73.2% | Activity [13]: 18.2% | viability at 1 µM [14]: 77% | Activity [15]: 32.9% | Activity [16]: 3.44% | Activity [17]: 31.7% | Activity [18]: 9.19% | Activity [19]: 13.6% | Activity [20]: 1.49% | Activity [21]: 0.5% | Activity [22]: 32.8% | viability at 5 µM [23]: 74.6% | Activity [24]: 13.9%

IC50 [25]: 36 nM
SMILES: O=S(=O)(Nc1cc(-c2ccc3[nH]ncc3c2)cnc1Cl)c1ccccc1

IC50 [25]: 859 nM
SMILES: O=S(=O)(Nc1cc(-c2ccc3sccc3c2)cnc1Cl)c1ccccc1

IC50 [25]: 209 nM
SMILES: O=S(=O)(Nc1cc(-c2cnc3occc3c2)cnc1Cl)c1ccccc1

IC50 [25]: 28 nM
SMILES: O=S(=O)(Nc1cc(-c2ccc3[nH]cnc3c2)cnc1Cl)c1ccccc1

IC50 [25]: 3060 nM
SMILES: O=S(=O)(Nc1cc(-c2ccc3[nH]ccc3n2)cnc1Cl)c1ccccc1

IC50 [25]: 527 nM
SMILES: O=S(=O)(Nc1cc(-c2cc3cn[nH]c3cn2)cnc1Cl)c1ccccc1

IC50 [25]: 492 nM
SMILES: O=S(=O)(Nc1cc(-c2ccc3c(c2)CCN3)cnc1Cl)c1ccccc1

IC50 [25]: 37 nM
SMILES: O=S(=O)(Nc1cc(-c2ccc3ocnc3c2)cnc1Cl)c1ccccc1

IC50 [25]: 334 nM
SMILES: O=S(=O)(Nc1cc(-c2ccc3[nH]ccc3c2)cnc1Cl)c1ccccc1

IC50 [25]: 294 nM
SMILES: O=S(=O)(Nc1cc(-c2ccc3[nH]ncc3n2)cnc1Cl)c1ccccc1

IC50 [25]: 123 nM
SMILES: O=S(=O)(Nc1cc(-c2cnc3c(c2)CCN3)cnc1Cl)c1ccccc1

IC50 [25]: 204 nM
SMILES: O=S(=O)(Nc1cc(-c2cnc3scnc3c2)cnc1Cl)c1ccccc1

IC50 [25]: 15 nM
SMILES: O=S(=O)(Nc1cc(-c2ccc3[nH]nnc3c2)cnc1Cl)c1ccccc1

IC50 [25]: 17 nM
SMILES: O=S(=O)(Nc1cc(-c2ccc3occc3c2)cnc1Cl)c1ccccc1

IC50 [25]: 604 nM
SMILES: O=S(=O)(Nc1cc(-c2ccc3scnc3c2)cnc1Cl)c1ccccc1

IC50 [26]: 80 nM | IC50 [25]: 49 nM | IC50 [27]: 57 nM | IC50 [28]: 59 nM
SMILES: O=S(=O)(Nc1cc(-c2cnc3[nH]ccc3n2)cnc1Cl)c1ccccc1

IC50 [26]: 26 nM | IC50 [25]: 16 nM | IC50 [27]: 21 nM | IC50 [28]: 28 nM
SMILES: O=S(=O)(Nc1cc(-c2cnc3[nH]cnc3c2)cnc1Cl)c1ccccc1

IC50 [25]: 1310 nM
SMILES: O=S(=O)(Nc1cc(-c2cc3cc[nH]c3cn2)cnc1Cl)c1ccccc1
